Values after ≈ are worked out from the molar mass of the structure shown. Active and inactive are the calls of the source. The calls are words filed in the database; no cut-off is given here.
What was measured:
Candida albicans [1] = conditions: ATCC 10231, 0.975 ug/ml
BEAS-2B = experiment: Cytotoxicity against human BEAS2B cells up to 7.8 ug/ml after 24 hrs by resazurin based assay; format: cell-based
Cryptococcus neoformans [2] = experiment: Antifungal activity against Cryptococcus neoformans isolate CN2 measured after 48 hrs by CLSI M27-A3 protocol based method; format: functional; conditions: Cryptococcus neoformans, isolate CN2, 48 h; read-out: MIC
Candida albicans [3] = conditions: ATCC 10231, 0.975 ug/ml; remark: listed apart in the source
Cryptococcus neoformans [4] = experiment: Antifungal activity against Cryptococcus neoformans isolate CN1 measured after 48 hrs by CLSI M27-A3 protocol based method; format: functional; conditions: isolate CN1, 48 h
Candida parapsilosis [5] = experiment: Antifungal activity against Candida parapsilosis ATCC 22019 measured after 48 hrs in presence of 10% FBS by CLSI M27-A3 protocol based method; format: functional; conditions: Lodderomyces parapsilosis, ATCC 22019, 48 h
Candida albicans [6] = experiment: Antifungal activity against Candida albicans ATCC 10231 measured after 48 hrs in presence of 10% FBS by CLSI M27-A3 protocol based method; format: functional; conditions: Candida albicans, ATCC 10231, 48 h
Candida albicans [7] = experiment: Induction of membrane permeabilization in Candida albicans ATCC 10231 assessed as membrane disruption at 4 times MIC after 1 hr by propidium iodide staining based fluorescence microscopy; format: functional, organism-based
Aspergillus flavus = experiment: Antifungal activity against Aspergillus flavus ATCC MYA-3631 measured after 48 hrs by CLSI M38-A2 protocol based method; format: functional; conditions: ATCC MYA-3631, 48 h
Candida albicans [8] = experiment: Antifungal activity against fluconazole/ITC-resistant Candida albicans ATCC 90819 measured after 48 hrs by CLSI M27-A3 protocol based method; format: functional; conditions: Candida albicans, ATCC 90819, 48 h; read-out: MIC
[9] = Hemolytic activity in mouse RBC at 7.8 ug/ml after 1 hr relative to control; format: ADME, cell-based, Erythrocyte; conditions: mouse red blood cells (erythrocytes), read-out: Activity
[10] = Hemolytic activity in mouse RBC at […] ug/ml after 1 hr relative to control; format: ADME, cell-based, Erythrocyte; conditions: mouse red blood cells (erythrocytes), read-out: Activity
[11] = Hemolytic activity in mouse RBC at 0.48 ug/ml after 1 hr relative to control; format: ADME, cell-based, Erythrocyte; conditions: mouse red blood cells (erythrocytes), read-out: Activity
Nakaseomyces glabratus [12] = experiment: Antifungal activity against Candida glabrata isolate CG3 measured after 48 hrs by CLSI M27-A3 protocol based method; format: functional; conditions: Nakaseomyces glabratus, 48 h; read-out: MIC
Candida parapsilosis [13] = experiment: Antifungal activity against Candida parapsilosis isolate CP1 measured after 48 hrs by CLSI M27-A3 protocol based method; format: functional; conditions: Lodderomyces parapsilosis, isolate CP1, 48 h
Candida albicans [14] = conditions: ATCC 10231, 0.975 ug/ml; remark: listed apart in the source
[15] = Hemolytic activity in mouse RBC at 62.5 ug/ml after 1 hr relative to control; format: ADME, cell-based, Erythrocyte; conditions: mouse red blood cells (erythrocytes), read-out: Activity
Candida parapsilosis [16] = experiment: Antifungal activity against Candida parapsilosis isolate CP3 measured after 48 hrs by CLSI M27-A3 protocol based method; format: functional; conditions: Lodderomyces parapsilosis, isolate CP3, 48 h
Candida albicans [17] = experiment: Antifungal activity against fluconazole/ITC-susceptible Candida albicans ATCC MYA-2876 measured after 48 hrs by CLSI M27-A3 protocol based method; format: functional; conditions: Candida albicans, ATCC MYA-2876, 48 h
Aspergillus nidulans [18] = experiment: Antifungal activity against Aspergillus nidulans ATCC 38163 measured after 48 hrs by CLSI M38-A2 protocol based method; format: functional; conditions: ATCC 38163, 48 h
[19] = Hemolytic activity in mouse RBC at 31.3 ug/ml after 1 hr relative to control; format: ADME, cell-based, Erythrocyte; conditions: mouse red blood cells (erythrocytes), at 31.3 µg/mL, read-out: Activity
Pichia kudriavzevii = experiment: Antifungal activity against Candida krusei ATCC 6258 measured after 48 hrs by CLSI M27-A3 protocol based method; format: functional; conditions: Pichia kudriavzevii, ATCC 6258, 48 h
Candida albicans [20] = experiment: Antifungal activity against Candida albicans ATCC 64124 measured after 48 hrs by CLSI M27-A3 protocol based method; format: functional; conditions: Candida albicans, ATCC 64124, 48 h; read-out: MIC
[21] = Hemolytic activity in mouse RBC at 1.95 ug/ml after 1 hr relative to control; format: ADME, cell-based, Erythrocyte; conditions: mouse red blood cells (erythrocytes), at 1.95 µg/mL, read-out: Activity
Cryptococcus neoformans [22] = experiment: Antifungal activity against Cryptococcus neoformans isolate CN3 measured after 48 hrs by CLSI M27-A3 protocol based method; format: functional; conditions: Cryptococcus neoformans, isolate CN3, 48 h; read-out: MIC
Candida albicans [23] = experiment: Antifungal activity against fluconazole/ITC-resistant Candida albicans ATCC MYA-1237 measured after 48 hrs by CLSI M27-A3 protocol based method; format: functional; conditions: Candida albicans, ATCC MYA-1237, 48 h; read-out: MIC
A549 = experiment: Cytotoxicity against human A549 cells up to 7.8 ug/ml after 24 hrs by resazurin based assay; format: cell-based; conditions: a549, 24 h
Nakaseomyces glabratus [24] = experiment: Antifungal activity against Candida glabrata isolate CG1 measured after 48 hrs by CLSI M27-A3 protocol based method; format: functional; conditions: Nakaseomyces glabratus, 48 h; read-out: MIC
[25] = Cytotoxicity against HEK293 cells assessed as cell survival at 3.9 ug/ml after 24 hrs by resazurin based assay relative to control; conditions: human, read-out: Survival
Candida albicans [26] = conditions: ATCC 10231, 0.975 ug/ml; remark: listed apart in the source
Candida albicans [27] = experiment: Antifungal activity against Candida albicans ATCC 10231 measured after 48 hrs by CLSI M27-A3 protocol based method; format: functional; conditions: ATCC 10231, 48 h
Candida albicans [28] = experiment: Antifungal activity against fluconazole/ITC-susceptible Candida albicans ATCC MYA-2310 measured after 48 hrs by CLSI M27-A3 protocol based method; format: functional; conditions: Candida albicans, ATCC MYA-2310, 48 h; read-out: MIC
Nakaseomyces glabratus [29] = experiment: Antifungal activity against Candida glabrata ATCC 2001 measured after 48 hrs by CLSI M27-A3 protocol based method; format: functional, CBS 138; conditions: Nakaseomyces glabratus, CBS 138, 48 h; read-out: MIC
Nakaseomyces glabratus [30] = experiment: Antifungal activity against Candida glabrata isolate CG2 measured after 48 hrs by CLSI M27-A3 protocol based method; format: functional; conditions: Nakaseomyces glabratus, isolate CG2, 48 h; read-out: MIC
Aspergillus nidulans [31] = experiment: Antifungal activity against Aspergillus nidulans ATCC 38163 measured after 48 hrs in presence of 10% FBS by CLSI M38-A2 protocol based method; format: functional; conditions: ATCC 38163, 48 h
[32] = Hemolytic activity in mouse RBC at 3.9 ug/ml after 1 hr relative to control; format: ADME, cell-based, Erythrocyte; conditions: mouse red blood cells (erythrocytes), read-out: Activity
Candida albicans [33] = experiment: Antifungal activity against fluconazole/ITC-resistant Candida albicans ATCC MYA-1003 measured after 48 hrs by CLSI M27-A3 protocol based method; format: functional; conditions: Candida albicans, ATCC MYA-1003, 48 h; read-out: MIC
Candida parapsilosis [34] = experiment: Antifungal activity against Candida parapsilosis isolate CP2 measured after 48 hrs by CLSI M27-A3 protocol based method; format: functional; conditions: Lodderomyces parapsilosis, isolate CP2, 48 h
Candida parapsilosis [35] = experiment: Antifungal activity against Candida parapsilosis ATCC 22019 measured after 48 hrs by CLSI M27-A3 protocol based method; format: functional; conditions: Lodderomyces parapsilosis, ATCC 22019, 48 h
Aspergillus terreus = experiment: Antifungal activity against Aspergillus terreus ATCC MYA-3633 measured after 48 hrs by CLSI M38-A2 protocol based method; format: functional; conditions: ATCC MYA-3633, 48 h

CCCCCCCCCCCCCCNCC(O)(Cn1cncn1)c1ccc(F)cc1F (stereo unspecified)
Activity (Candida albicans [1]): 1.16%
Activity (BEAS-2B): Non-Toxic
MIC (Cryptococcus neoformans [2]): 0.53 µM (≈ 0.239 µg/mL)
Activity (Candida albicans [3]): 36.4%
MIC (Cryptococcus neoformans [4]): 0.27 µM (≈ 0.122 µg/mL)
MIC (Candida parapsilosis [5]): 0.975 µg/mL
MIC (Candida albicans [6]): 7.8 µg/mL
Activity (Candida albicans [7]): inactive
MIC (Aspergillus flavus): > 69.5 µM
MIC (Candida albicans [8]): 17.3 µM (≈ 7.8 µg/mL)
hemolysis at 1 h, 7.8 ug/ml [9]: 17%
hemolysis at 1 h, 0.975 ug/ml [10]: 6%
hemolysis at 1 h, 15.6 ug/ml [10]: 29%
hemolysis at 1 h, 0.48 ug/ml [11]: 2%
MIC (Nakaseomyces glabratus [12]): 8.7 µM (≈ 3.92 µg/mL)
MIC (Candida parapsilosis [13]): 1.1 µM (≈ 0.496 µg/mL)
Activity (Candida albicans [14]): 15.6%
hemolysis at 1 h, 62.5 ug/ml [15]: 77%
MIC (Candida parapsilosis [16]): 1.1 µM (≈ 0.496 µg/mL)
MIC (Candida albicans [17]): > 69.5 µM
MIC (Aspergillus nidulans [18]): 8.7 µM (≈ 3.92 µg/mL)
hemolysis at 1 h, 31.3 ug/ml [19]: < 50%
MIC (Pichia kudriavzevii): 8.7 µM (≈ 3.92 µg/mL)
MIC (Candida albicans [20]): > 69.5 µM
hemolysis at 1 h, 1.95 ug/ml [21]: 3%
MIC (Cryptococcus neoformans [22]): 1.1 µM (≈ 0.496 µg/mL)
MIC (Candida albicans [23]): > 69.5 µM
Activity (A549): Non-Toxic
MIC (Nakaseomyces glabratus [24]): 4.3 µM (≈ 1.94 µg/mL)
viability at 24 h, 3.9 ug/ml [25]: > 50%
Activity (Candida albicans [26]): 8.33%
MIC (Candida albicans [27]): 4.3 µM (≈ 1.94 µg/mL)
MIC (Candida albicans [28]): 69.5 µM (≈ 31.3 µg/mL)
MIC (Nakaseomyces glabratus [29]): 2.2 to 4.3 µM (≈ 0.991 to 1.94 µg/mL)
MIC (Nakaseomyces glabratus [30]): 4.3 µM (≈ 1.94 µg/mL)
MIC (Aspergillus nidulans [31]): 31.2 µg/mL
hemolysis at 1 h, 3.9 ug/ml [32]: 10%
MIC (Candida albicans [33]): 69.5 µM (≈ 31.3 µg/mL)
MIC (Candida parapsilosis [34]): 2.2 µM (≈ 0.991 µg/mL)
MIC (Candida parapsilosis [35]): 1.1 µM (≈ 0.496 µg/mL)
MIC (Aspergillus terreus): 17.3 µM (≈ 7.8 µg/mL)
